# ChEMBL document CHEMBL4507299, “Data for DCP probe PF-04554878” (2021)
# What was measured:
# [1] = target: Ribosomal protein S6 kinase alpha-6 (Homo sapiens) (UniProt Q9UK32)
# [2] = target: Vascular endothelial growth factor receptor 1 (Homo sapiens, UniProt P17948)
# [3] = target: Phosphatidylinositol 4-phosphate 5-kinase type-1 gamma (Homo sapiens) (UniProt O60331)
# [4] = target: Mitogen-activated protein kinase kinase kinase 15 (Homo sapiens) (UniProt Q6ZN16)
# [5] = target: Serine/threonine-protein kinase D1 (Homo sapiens) (UniProt Q15139)
# Sequence of Serine/threonine-protein kinase D1 (Homo sapiens) (Q15139 whole entry): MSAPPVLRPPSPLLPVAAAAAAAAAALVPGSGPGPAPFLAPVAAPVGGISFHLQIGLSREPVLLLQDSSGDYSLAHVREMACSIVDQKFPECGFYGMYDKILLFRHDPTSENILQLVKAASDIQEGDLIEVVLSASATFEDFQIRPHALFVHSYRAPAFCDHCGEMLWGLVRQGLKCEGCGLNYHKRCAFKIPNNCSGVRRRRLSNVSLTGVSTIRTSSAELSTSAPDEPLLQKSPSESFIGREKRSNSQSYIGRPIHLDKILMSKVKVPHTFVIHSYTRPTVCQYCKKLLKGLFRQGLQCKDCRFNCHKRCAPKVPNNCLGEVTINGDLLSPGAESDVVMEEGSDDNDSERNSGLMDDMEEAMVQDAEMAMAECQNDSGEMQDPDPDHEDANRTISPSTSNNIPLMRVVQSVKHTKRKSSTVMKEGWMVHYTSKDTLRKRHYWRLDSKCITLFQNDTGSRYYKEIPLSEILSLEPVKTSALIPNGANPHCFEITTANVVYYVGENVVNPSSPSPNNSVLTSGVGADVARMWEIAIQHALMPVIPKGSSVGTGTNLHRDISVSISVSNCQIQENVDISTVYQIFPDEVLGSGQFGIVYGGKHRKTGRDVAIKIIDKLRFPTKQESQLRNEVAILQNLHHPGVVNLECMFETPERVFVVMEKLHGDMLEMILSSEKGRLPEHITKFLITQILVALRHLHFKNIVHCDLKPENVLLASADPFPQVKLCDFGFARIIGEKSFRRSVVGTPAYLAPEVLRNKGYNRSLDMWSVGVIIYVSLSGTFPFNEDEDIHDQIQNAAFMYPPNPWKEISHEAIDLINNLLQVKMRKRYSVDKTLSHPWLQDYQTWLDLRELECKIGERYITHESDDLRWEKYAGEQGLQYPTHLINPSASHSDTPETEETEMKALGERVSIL
# [6] = target: Ephrin type-B receptor 2 (Homo sapiens) (UniProt P29323)
# [7] = target: Mitogen-activated protein kinase 6 (Homo sapiens) (UniProt Q16659)
# [8] = tested on: Phosphatidylinositol 4,5-bisphosphate 3-kinase catalytic subunit alpha isoform (Homo sapiens), P42336 [E545K]
# [9] = target: Epidermal growth factor receptor (Homo sapiens) (UniProt P00533)
# [10] = target: Serine/threonine-protein kinase TBK1 (Homo sapiens) (UniProt Q9UHD2)
# [11] = target: Phosphatidylinositol 4,5-bisphosphate 3-kinase catalytic subunit gamma isoform (Homo sapiens) (UniProt P48736)
# [12] = tested on: Hepatocyte growth factor receptor (Homo sapiens), P08581 [M1250T]
# [13] = target: BDNF/NT-3 growth factors receptor (Homo sapiens) (UniProt Q16620)
# Sequence of BDNF/NT-3 growth factors receptor (Homo sapiens) (Q16620 32-822 limits assumed): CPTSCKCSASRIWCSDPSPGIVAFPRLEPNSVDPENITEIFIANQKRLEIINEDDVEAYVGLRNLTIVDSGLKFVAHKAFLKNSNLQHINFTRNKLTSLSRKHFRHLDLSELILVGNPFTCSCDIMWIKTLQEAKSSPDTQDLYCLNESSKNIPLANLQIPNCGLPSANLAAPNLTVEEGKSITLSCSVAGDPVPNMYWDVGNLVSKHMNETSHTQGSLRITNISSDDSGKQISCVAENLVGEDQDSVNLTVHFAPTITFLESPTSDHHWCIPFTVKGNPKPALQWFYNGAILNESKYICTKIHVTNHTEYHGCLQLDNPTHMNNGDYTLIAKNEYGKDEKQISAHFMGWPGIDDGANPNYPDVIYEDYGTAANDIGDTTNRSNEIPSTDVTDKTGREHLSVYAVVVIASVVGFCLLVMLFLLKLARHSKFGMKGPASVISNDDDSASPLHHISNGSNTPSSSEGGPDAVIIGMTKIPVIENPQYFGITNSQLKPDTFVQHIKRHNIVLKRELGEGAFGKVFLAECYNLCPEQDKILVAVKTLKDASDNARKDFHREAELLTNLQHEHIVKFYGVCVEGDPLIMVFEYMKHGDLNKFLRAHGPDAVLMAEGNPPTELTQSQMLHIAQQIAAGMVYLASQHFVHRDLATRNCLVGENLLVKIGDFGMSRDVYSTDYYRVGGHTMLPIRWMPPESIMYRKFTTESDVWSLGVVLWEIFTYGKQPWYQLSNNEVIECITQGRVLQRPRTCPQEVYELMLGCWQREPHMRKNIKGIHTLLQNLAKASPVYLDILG
# [14] = target: Ribosomal protein S6 kinase alpha-4 (Homo sapiens) (UniProt O75676)
# [15] = target: Calcium/calmodulin-dependent protein kinase type II subunit beta (Homo sapiens) (UniProt Q13554)
# [16] = target: Delta-type opioid receptor (Homo sapiens) (UniProt P41143); conditions: Compound concentration 10.0 uM
# [17] = target: Death-associated protein kinase 3 (Homo sapiens) (UniProt O43293)
# [18] = target: Mitogen-activated protein kinase kinase kinase 10 (Homo sapiens) (UniProt Q02779)
# [19] = target: D(1B) dopamine receptor (Homo sapiens) (UniProt P21918); conditions: Compound concentration 10.0 uM
# [20] = target: Serine/threonine-protein kinase haspin (Homo sapiens) (UniProt Q8TF76)
# [21] = target: Ephrin type-B receptor 6 (Homo sapiens) (UniProt O15197)
# [22] = target: ALK tyrosine kinase receptor (Homo sapiens) (UniProt Q9UM73)
# Sequence of ALK tyrosine kinase receptor (Homo sapiens) (Q9UM73 19-1620 limits assumed): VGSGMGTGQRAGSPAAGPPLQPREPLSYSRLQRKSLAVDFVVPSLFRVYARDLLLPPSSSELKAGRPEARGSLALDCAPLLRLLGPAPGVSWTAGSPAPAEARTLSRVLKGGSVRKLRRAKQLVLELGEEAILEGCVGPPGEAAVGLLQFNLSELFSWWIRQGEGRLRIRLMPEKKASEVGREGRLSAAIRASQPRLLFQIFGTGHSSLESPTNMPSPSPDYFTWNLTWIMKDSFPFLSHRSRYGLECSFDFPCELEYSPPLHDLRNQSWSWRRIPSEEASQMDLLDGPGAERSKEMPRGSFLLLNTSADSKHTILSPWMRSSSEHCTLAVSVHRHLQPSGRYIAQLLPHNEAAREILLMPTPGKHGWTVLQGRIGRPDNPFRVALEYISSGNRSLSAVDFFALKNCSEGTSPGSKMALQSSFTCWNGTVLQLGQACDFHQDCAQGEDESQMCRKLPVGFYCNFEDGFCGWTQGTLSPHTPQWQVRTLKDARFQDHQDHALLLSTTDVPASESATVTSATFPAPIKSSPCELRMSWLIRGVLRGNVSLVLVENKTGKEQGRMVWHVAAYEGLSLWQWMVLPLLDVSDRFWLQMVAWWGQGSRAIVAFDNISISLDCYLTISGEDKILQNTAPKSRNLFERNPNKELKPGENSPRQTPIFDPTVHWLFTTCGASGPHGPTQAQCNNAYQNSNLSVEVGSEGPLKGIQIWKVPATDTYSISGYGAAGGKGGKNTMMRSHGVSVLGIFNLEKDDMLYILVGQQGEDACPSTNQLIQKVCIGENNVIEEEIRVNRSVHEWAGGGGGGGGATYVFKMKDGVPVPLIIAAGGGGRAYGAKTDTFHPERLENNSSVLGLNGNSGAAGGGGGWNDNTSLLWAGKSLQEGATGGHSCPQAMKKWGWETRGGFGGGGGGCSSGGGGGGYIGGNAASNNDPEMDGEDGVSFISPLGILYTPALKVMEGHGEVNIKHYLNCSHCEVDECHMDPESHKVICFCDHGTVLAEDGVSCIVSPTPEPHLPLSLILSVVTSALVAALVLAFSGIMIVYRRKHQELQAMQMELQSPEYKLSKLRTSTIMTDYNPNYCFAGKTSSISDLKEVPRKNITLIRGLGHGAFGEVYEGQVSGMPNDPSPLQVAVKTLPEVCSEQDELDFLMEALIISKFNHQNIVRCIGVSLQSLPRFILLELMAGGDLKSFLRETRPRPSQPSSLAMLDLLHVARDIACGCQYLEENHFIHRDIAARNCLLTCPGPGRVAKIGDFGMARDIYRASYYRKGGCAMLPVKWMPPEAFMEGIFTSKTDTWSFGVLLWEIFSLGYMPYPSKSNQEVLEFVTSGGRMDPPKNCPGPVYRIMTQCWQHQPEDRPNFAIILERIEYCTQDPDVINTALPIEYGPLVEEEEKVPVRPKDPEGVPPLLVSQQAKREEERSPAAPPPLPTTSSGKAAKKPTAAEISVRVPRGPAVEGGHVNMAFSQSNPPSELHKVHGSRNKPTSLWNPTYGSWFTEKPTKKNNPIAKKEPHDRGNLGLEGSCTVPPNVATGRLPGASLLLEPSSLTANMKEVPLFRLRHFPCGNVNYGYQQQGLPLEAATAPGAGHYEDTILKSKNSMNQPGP
# [23] = tested on: ALK tyrosine kinase receptor (Homo sapiens), Q9UM73 [C1156Y]
# [24] = target: Casein kinase II subunit alpha (Homo sapiens) (UniProt P68400)
# [25] = target: Serine/threonine-protein kinase SBK1 (Homo sapiens) (UniProt Q52WX2)
# [26] = target: Cyclin-dependent kinase 2 homolog (Plasmodium falciparum (isolate 3D7)) (UniProt P61075)
# Sequence of Cyclin-dependent kinase 2 homolog (Plasmodium falciparum (isolate 3D7)) (P61075 whole entry): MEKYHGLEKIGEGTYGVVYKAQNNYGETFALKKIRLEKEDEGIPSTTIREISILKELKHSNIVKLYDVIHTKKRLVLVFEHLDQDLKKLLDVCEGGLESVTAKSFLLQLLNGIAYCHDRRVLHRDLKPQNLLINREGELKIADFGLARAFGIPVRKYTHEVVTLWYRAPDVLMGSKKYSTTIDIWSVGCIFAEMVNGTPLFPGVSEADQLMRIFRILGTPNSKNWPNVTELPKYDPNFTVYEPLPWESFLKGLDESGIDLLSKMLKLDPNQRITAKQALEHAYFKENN
# [27] = target: Dual specificity tyrosine-phosphorylation-regulated kinase 1A (Homo sapiens) (UniProt Q13627)
# [28] = tested on: Receptor-type tyrosine-protein kinase FLT3 (Homo sapiens), P36888 [UNDEFINED MUTATION]
# [29] = target: Serine/threonine-protein kinase PLK4 (Homo sapiens) (UniProt O00444)
# [30] = target: Atypical kinase COQ8A, mitochondrial (Homo sapiens) (UniProt Q8NI60)
# [31] = tested on: Phosphatidylinositol 4,5-bisphosphate 3-kinase catalytic subunit alpha isoform (Homo sapiens), P42336 [H1047L]
# Sequence of Phosphatidylinositol 4,5-bisphosphate 3-kinase catalytic subunit alpha isoform (Homo sapiens), P42336 [H1047L] (P42336 whole entry H1047L, canonical isoform): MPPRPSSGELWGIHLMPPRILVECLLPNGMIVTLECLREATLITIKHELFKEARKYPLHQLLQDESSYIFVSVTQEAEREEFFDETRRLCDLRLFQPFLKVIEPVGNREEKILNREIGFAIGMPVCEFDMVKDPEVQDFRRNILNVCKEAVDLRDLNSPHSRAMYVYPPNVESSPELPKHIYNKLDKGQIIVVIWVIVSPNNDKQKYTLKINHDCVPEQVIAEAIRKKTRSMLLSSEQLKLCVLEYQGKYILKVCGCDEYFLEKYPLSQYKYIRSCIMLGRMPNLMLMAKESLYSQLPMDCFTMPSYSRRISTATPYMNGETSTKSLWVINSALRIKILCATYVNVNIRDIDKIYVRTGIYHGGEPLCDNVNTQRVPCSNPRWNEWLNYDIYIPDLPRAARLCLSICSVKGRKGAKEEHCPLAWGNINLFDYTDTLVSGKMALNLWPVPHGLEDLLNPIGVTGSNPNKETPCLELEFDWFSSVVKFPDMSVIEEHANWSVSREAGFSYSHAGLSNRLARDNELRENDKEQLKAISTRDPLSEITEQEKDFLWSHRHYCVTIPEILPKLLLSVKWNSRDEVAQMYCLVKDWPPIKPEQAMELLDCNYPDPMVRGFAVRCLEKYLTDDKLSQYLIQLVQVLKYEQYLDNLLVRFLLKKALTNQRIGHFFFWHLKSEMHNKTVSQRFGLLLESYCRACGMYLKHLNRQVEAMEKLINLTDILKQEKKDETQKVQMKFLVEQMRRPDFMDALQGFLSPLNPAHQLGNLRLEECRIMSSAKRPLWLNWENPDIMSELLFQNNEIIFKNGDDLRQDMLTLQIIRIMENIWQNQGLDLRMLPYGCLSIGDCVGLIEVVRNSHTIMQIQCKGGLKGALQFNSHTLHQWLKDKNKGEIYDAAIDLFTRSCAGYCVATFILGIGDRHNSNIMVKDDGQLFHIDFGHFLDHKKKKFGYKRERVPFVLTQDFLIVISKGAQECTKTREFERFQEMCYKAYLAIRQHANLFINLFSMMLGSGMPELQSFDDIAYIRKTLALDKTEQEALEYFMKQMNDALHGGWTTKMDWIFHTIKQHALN
# [32] = target: Serine/threonine-protein kinase MARK2 (Homo sapiens) (UniProt Q7KZI7)
# [33] = target: Phosphatidylinositol 4-phosphate 3-kinase C2 domain-containing subunit beta (Homo sapiens) (UniProt O00750)
# [34] = target: MAP/microtubule affinity-regulating kinase 3 (Homo sapiens) (UniProt P27448)
# [35] = target: NUAK family SNF1-like kinase 1 (Homo sapiens) (UniProt O60285)
# [36] = target: 5-hydroxytryptamine receptor 5A (Homo sapiens) (UniProt P47898); conditions: Compound concentration 10.0 uM
# [37] = target: Serine/threonine-protein kinase pim-2 (Homo sapiens) (UniProt Q9P1W9)
# Sequence of Serine/threonine-protein kinase pim-2 (Homo sapiens) (Q9P1W9 whole entry, looked up): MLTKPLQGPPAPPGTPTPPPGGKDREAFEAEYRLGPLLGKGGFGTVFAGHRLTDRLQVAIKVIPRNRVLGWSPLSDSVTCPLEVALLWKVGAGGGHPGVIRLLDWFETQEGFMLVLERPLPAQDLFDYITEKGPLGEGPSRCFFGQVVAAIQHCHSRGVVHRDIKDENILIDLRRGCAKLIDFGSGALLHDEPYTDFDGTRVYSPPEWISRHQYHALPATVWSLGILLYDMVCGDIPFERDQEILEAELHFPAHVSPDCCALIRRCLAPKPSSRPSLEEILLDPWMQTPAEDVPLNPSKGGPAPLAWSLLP
# [38] = target: Serine/threonine-protein kinase 4 (Homo sapiens) (UniProt Q13043)
# [39] = target: Calcium/calmodulin-dependent protein kinase kinase 2 (Homo sapiens) (UniProt Q96RR4)
# [40] = tested on: Phosphatidylinositol 4,5-bisphosphate 3-kinase catalytic subunit alpha isoform (Homo sapiens), P42336 [I800L]
# [41] = target: Serine/threonine-protein kinase D3 (Homo sapiens) (UniProt O94806)
# [42] = target: Calcium/calmodulin-dependent protein kinase type 1D (Homo sapiens) (UniProt Q8IU85)
# [43] = target: MAP/microtubule affinity-regulating kinase 4 (Homo sapiens) (UniProt Q96L34)
# [44] = target: SRSF protein kinase 1 (Homo sapiens) (UniProt Q96SB4)
# [45] = Compound concentration 100.0 nM
# [46] = Compound concentration 1000.0 nM
smiles,measurement,setting,value
CNC(=O)c1ccc(Nc2ncc(C(F)(F)F)c(NCc3nccnc3N(C)S(C)(=O)=O)n2)cc1 [DEFACTINIB],residual activity,[1]; [45],70%
same,residual activity,[2]; [45],63%
same,residual activity,[3]; [45],100%
same,residual activity,[4]; [45],95%
same,residual activity,[5]; [45],100%
same,residual activity,[6]; [45],76%
same,residual activity,[7]; [45],71%
same,residual activity,[8]; [45],100%
same,residual activity,[9]; [45],88%
same,residual activity,[10]; [45],75%
same,residual activity,[11]; [45],100%
same,residual activity,[12]; [45],63%
same,residual activity,[13]; [45],21%
same,residual activity,[14]; [45],85%
same,residual activity,[15]; [45],86%
same,inhibition,[16],-0.28%
same,residual activity,[17]; [45],75%
same,residual activity,[18]; [45],68%
same,inhibition,[19],-7.46%
same,residual activity,[20]; [45],100%
same,residual activity,[21]; [45],100%
same,residual activity,[22]; [45],58%
same,residual activity,[23]; [45],74%
same,residual activity,[24]; [45],61%
same,residual activity,[25]; [45],67%
same,residual activity,[26]; [45],89%
same,residual activity,[27]; [45],71%
same,residual activity,[28]; [45],14%
same,residual activity,[29]; [45],79%
same,residual activity,[30]; [45],98%
same,residual activity,[31]; [45],32%
same,residual activity,[32]; [45],66%
same,residual activity,[33]; [45],87%
same,residual activity,[34]; [45],90%
same,residual activity,[35]; [45],31%
same,inhibition,[36],-1.91%
same,residual activity,[37]; [45],100%
same,residual activity,[38]; [45],97%
same,residual activity,[39]; [45],68%
same,residual activity,[40]; [45],100%
same,residual activity,[41]; [45],100%
same,residual activity,[42]; [45],100%
same,residual activity,[43]; [45],83%
same,residual activity,[44]; [45],51%
CN(c1ccnc(CNc2nc(Nc3ccc4c(c3)CC(=O)N4)ncc2C(F)(F)F)n1)S(C)(=O)=O [PF-00911705],residual activity,[1]; [46],4.6%
same,residual activity,[2]; [46],69%
same,residual activity,[3]; [46],91%
same,residual activity,[4]; [46],92%
same,residual activity,[5]; [46],100%
same,residual activity,[6]; [46],81%
same,residual activity,[7]; [46],66%
same,residual activity,[8]; [46],100%
same,residual activity,[9]; [46],74%
same,residual activity,[10]; [46],21%
same,residual activity,[11]; [46],100%
same,residual activity,[12]; [46],6.8%
same,residual activity,[13]; [46],21%
same,residual activity,[14]; [46],81%
same,residual activity,[15]; [46],86%
same,inhibition,[16],-6.88%
same,residual activity,[17]; [46],33%
same,residual activity,[18]; [46],49%
same,inhibition,[19],-0.97%
same,residual activity,[20]; [46],76%
same,residual activity,[21]; [46],54%
same,residual activity,[22]; [46],81%
same,residual activity,[23]; [46],77%
same,residual activity,[24]; [46],26%
same,residual activity,[25]; [46],34%
same,residual activity,[26]; [46],75%
same,residual activity,[27]; [46],19%
same,residual activity,[28]; [46],0.7%
same,residual activity,[29]; [46],50%
same,residual activity,[30]; [46],79%
same,residual activity,[31]; [46],92%
same,residual activity,[32]; [46],47%
same,residual activity,[33]; [46],79%
same,residual activity,[34]; [46],52%
same,residual activity,[35]; [46],21%
same,inhibition,[36],1.82%
same,residual activity,[37]; [46],100%
same,residual activity,[38]; [46],100%
same,residual activity,[39]; [46],69%
same,residual activity,[40]; [46],84%
same,residual activity,[41]; [46],100%
same,residual activity,[42]; [46],79%
same,residual activity,[43]; [46],63%
same,residual activity,[44]; [46],17%
